In brackets after ≈: the same amount, converted by molar mass. Bridge positions count the residues as written; N and C are the ends. Square brackets hold non-standard residues; d marks the D form. Peptide text beside a SMILES is read from it. d(aIle) = CC[C@H](C)[C@@H](N)C(=O)O; dNMeF = CN[C@H](Cc1ccccc1)C(=O)O
How the values were obtained:
[1] = system: Staphylococcus aureus ATCC 29213; test: microbe, parasite or virus in culture
MRSA 1: MRSA ATCC 700699 = test: microbe, parasite or virus in culture
[2] = system: MRSA 3: MRSA DM21455 (eye); test: microbe, parasite or virus in culture
[3] = Lipid II TLC binding assay; settings: peptide : lipid II 2 : 1; 50 mM Tris/HCl, pH 7.5, 30 min, room temperature; three independent experiments
Protocol: X. Complex formation of teixobactin with lipid II and geranyl pyrophosphate Complex formation of teixobactin analogues 8 (Ala10-teixobactin) and 16 (Arg10-teixobactin) with lipid II and geranyl pyrophosphate was performed using TLC as described previously.7 Binding of teixobactin to lipid II and geranyl pyrophosphate was analysed by incubating 30 µL of 2 nmol of each precursor with 2 or 4 nmoles of teixobactin in 50 mM Tris/HCl, pH 7.5, for 30 min at room temperature. Complex formation was analysed by extracting unbound precursors from the reaction mixture with 30 µL n- butanol/6M pyridine acetate (pH 4.2) (2:1; vol/vol) followed by TLC analysis of the organic layer using chloroform/methanol/water/ammonia (88:48:10:1, v/v/v/v) as the solvent and detection of lipid/phosphate containing precursors by phosphomolybdic acid staining. The TLC figures represent the results obtained through thr ee independent experiments.
Figure S76 : Binding of teixobactin analogues 8 (Ala10-teixobactin ) and 16 (Arg10-teixobactin) with lipid II using the protocols described in literature .7 Partial binding is observed when the ratio of lipid II to the analogue is 1:1 (indicated by lighter spots on the TLC) and complete binding is observed when the ratio of lipid II to the analogue is 1:2 in case of analogue 16 and 1:4 in case of analogue 8 (indicated […]
(also on this page, place not known: polyso rbate vancomycin , concentr ation 80 . wer e µ l (10 1-105 10 10 previously n - TL C three S76: (Ala10-teixobactin) literature.7 Lipid II Lipid II: Compound 8 = 1:1 Lipid II: Compound 16 = 1:1 Lipid II: Compound 8 = 1:2 Lipid II: Compound 16 = 1:2 Lipid II: Compound 8 = 1:4)

[4] = 1H DOSY at each titration point
[5] = NMR titration with geranyl pyrophosphate (lipid II mimic); type: binding
Protocol: In order to evaluate target binding, we have performed the lipid II TLC binding assay[2] with Ala10-teixobactin. This assay provides qualitative binding data of Ala10-teixobactin with lipid II. […] Therefore, in order better understand the target binding of teixobactin analogues in a quantitative manner, extensive NMR studies (Fig. 6) on Ala10-teixobactin and geranyl pyrophosphate were performed.
This can occur due to intermediate exchange on the NMR time-scale, and therefore cooperative binding is not an obvious choice.

[6] = system: MRSA 2: MRSA DR 42412 (sputum); test: microbe, parasite or virus in culture
M. smegmatis ATCC 607 = test: microbe, parasite or virus in culture; settings: ATCC 607, 72 h
Protocol: were grown in Mueller Hinton broth (Oxoid) in triplicate. All incubations were at 37°C. Dilutions were carried out in triplicate. 100 µl of autoclaved Mueller Hinton broth was added to wells 2-12 in a 96-well plate. 200 µl of the peptide was added to well one at a concentration of 256 µg/mL. 100µl of peptide in well one was taken up and pipetted into well two. The mixture was then mixed via pipetting before 100µl was taken up and pipetted into well three. This process was repeated up to well 11. Once […]
peptide present. Thus, the concentrations (in µg/mL) were: 256, 128, 64, 32, 16, 8, 4, 2, 1, 0.5, 0.25 and no peptide present. Each well was then inoculated with 100µl of bacteria that had been diluted to an […]
This was repeated three times. The 96-well plates were then incubated at 37°C for 24 hours. The MIC was determined to be the lowest concentration at which there was no growth visible. […]
was repeated at an altered initial concentration of 64 µg/ml. Therefore, the new concentrations for MIC […]
Middlebrook 7H9 broth (SIGMA) supplemented to 5% Middlebrook ADC (SIGMA) growth

MRSA ATCC 33591 = test: microbe, parasite or virus in culture; settings: ATCC 33591, 24 h
VRE 2: VRE ATCC 29212 = test: organism not typed
VRE 1: VRE ATCC 700802 = test: organism not typed

Compound: CC[C@H](C)[C@H](NC(=O)[C@@H](Cc1ccccc1)NC)C(=O)N[C@@H](CO)C(=O)N[C@H](CCC(N)=O)C(=O)N[C@@H](C(=O)N[C@H](C(=O)N[C@@H](CO)C(=O)N[C@H]1C(=O)N[C@@H](C)C(=O)N[C@@H](C)C(=O)N[C@@H]([C@@H](C)CC)C(=O)O[C@H]1C)[C@@H](C)CC)[C@@H](C)CC [Compound 8, Ala10-teixobactin] (H-[dNMeF]IS[dQ][d(aIle)]IS[dT]AAI; ester 8-C)
- MIC (without polysorbate 80) ([1]; ATCC 29213, 24 h): 4 µg/mL (≈ 3.45 µM)
- MIC (with polysorbate 80) ([1]; S. aureus ATCC 29213, MHB containing polysorbate 80 (0.002%, v/v), 37 °C, 24 h): 1 µg/mL (≈ 0.863 µM)
- MBC ([1]; Staphylococcus aureus ATCC 29213, plated on MHA, 37 °C, 24 h): 2 μg mL^–1
- MIC (MRSA 1: MRSA ATCC 700699; ATCC 700699, 24 h): 4 μg mL^–1
- MIC (without polysorbate 80) (MRSA 1: MRSA ATCC 700699; ATCC 700699, 24 h): 8 µg/mL (≈ 6.9 µM)
- MBC (MRSA 1: MRSA ATCC 700699; MRSA 1 (MRSA ATCC 700699), plated on MHA, 37 °C, 24 h): 16 μg mL^–1
- MIC (with polysorbate 80) (MRSA 1: MRSA ATCC 700699; MRSA 1, MHB containing polysorbate 80 (0.002%, v/v), 37 °C, 24 h, two independent duplicates): 4 µg/mL (≈ 3.45 µM)
- MIC ([2]; 3: DM21455 (eye, 24 h)): 1 μg mL^–1
- MIC (without polysorbate 80) ([2]; 3: DM21455 (eye, 24 h)): 4 µg/mL (≈ 3.45 µM)
- MBC ([2]; MRSA 3 (MRSA DM21455), plated on MHA, 37 °C, 24 h): 2 μg mL^–1
- MIC (with polysorbate 80) ([2]; MRSA 3, MHB containing polysorbate 80 (0.002%, v/v), 37 °C, 24 h): 1 µg/mL (≈ 0.863 µM)
- lipid II spot on TLC [3]: a small amount of lipid II was still visible on TLC
- aggregation in presence of geranyl pyrophosphate (diffusion coefficient) [4]: no aggregation occurred
- Kd ([5]; 2 Ile Hα, NMR titration of geranyl pyrophosphate): 348 ± 18 µM
- Kd ([5]; 3 Ser Hα, NMR titration of geranyl pyrophosphate): 503 ± 8 µM
- Kd ([5]; 4 D-Gln Hα, NMR titration of geranyl pyrophosphate): 507 ± 2 µM
- Kd ([5]; 5 D-Ile Hα, NMR titration of geranyl pyrophosphate): 483 ± 4 µM
- Kd ([5]; 7 Ser Hα, NMR titration of geranyl pyrophosphate): 125 ± 3 µM
- Kd ([5]; 8 D-Thr Hα, NMR titration of geranyl pyrophosphate): 204 ± 3 µM
- Kd ([5]; 9 Ala Hα, NMR titration of geranyl pyrophosphate): 394 ± 4 µM
- Kd ([5]; 10 Ala Hα, NMR titration of geranyl pyrophosphate): 314 ± 3 µM
- Kd ([5]; 11 Ile Hα, NMR titration of geranyl pyrophosphate): 391 ± 4 µM
- Kd ([5]; Net (Total), overall binding by PCA): 138 ± 5 µM
- MIC ([6]; 2: DR 42412 (sputum, 24 h)): 1 μg mL^–1
- MIC (without polysorbate 80) ([6]; 2: DR 42412 (sputum, 24 h)): 4 µg/mL (≈ 3.45 µM)
- MBC ([6]; MRSA 2 (MRSA DR 42412), plated on MHA, 37 °C, 24 h): 4 μg mL^–1
- MIC (with polysorbate 80) ([6]; MRSA 2, MHB containing polysorbate 80 (0.002%, v/v), 37 °C, 24 h): 1 µg/mL (≈ 0.863 µM)
- MIC (M. smegmatis ATCC 607): 1–2 μg mL^–1
- MIC (MRSA ATCC 33591): 1–2 μg mL^–1
- MIC (VRE 2: VRE ATCC 29212; ATCC 29212, 24 h): 4 μg mL^–1
- MIC (without polysorbate 80) (VRE 2: VRE ATCC 29212; ATCC 29212, 24 h): 8 µg/mL (≈ 6.9 µM)
- MIC (with polysorbate 80) (VRE 2: VRE ATCC 29212; VRE 2, MHB containing polysorbate 80 (0.002%, v/v), 37 °C, 24 h): 4 µg/mL (≈ 3.45 µM)
- MIC (VRE 1: VRE ATCC 700802; ATCC 700802, 24 h): 4 μg mL^–1
- MIC (without polysorbate 80) (VRE 1: VRE ATCC 700802; ATCC 700802, 24 h): 8 µg/mL (≈ 6.9 µM)
- MIC (with polysorbate 80) (VRE 1: VRE ATCC 700802; VRE 1, MHB containing polysorbate 80 (0.002%, v/v), 37 °C, 24 h): 4 µg/mL (≈ 3.45 µM)
